Measured values as given in patent publication US7816408B2, “Calcium receptor active compounds” (NPS Pharmaceuticals, Inc., priority 2002, dated 2010).
pEC50: −log10 of the molar value.

target: T1, human calcium receptor (Homo sapiens, UniProt P41180); assay: Activity on calcium receptors: fluo-3 fluorescence in HEK293 cells transfected with human calcium receptor gene; assay type: cell-based; settings: HEK293 cells transfected with plasmid pHuPCaR4.0 (human calcium receptor gene), loaded with fluo-3; 1 mM CaCl2, 1 mM MgCl2
T1 construct: expressed in transfected cells; host or cells: HEK293
T1 sequence (P41180 20-1078): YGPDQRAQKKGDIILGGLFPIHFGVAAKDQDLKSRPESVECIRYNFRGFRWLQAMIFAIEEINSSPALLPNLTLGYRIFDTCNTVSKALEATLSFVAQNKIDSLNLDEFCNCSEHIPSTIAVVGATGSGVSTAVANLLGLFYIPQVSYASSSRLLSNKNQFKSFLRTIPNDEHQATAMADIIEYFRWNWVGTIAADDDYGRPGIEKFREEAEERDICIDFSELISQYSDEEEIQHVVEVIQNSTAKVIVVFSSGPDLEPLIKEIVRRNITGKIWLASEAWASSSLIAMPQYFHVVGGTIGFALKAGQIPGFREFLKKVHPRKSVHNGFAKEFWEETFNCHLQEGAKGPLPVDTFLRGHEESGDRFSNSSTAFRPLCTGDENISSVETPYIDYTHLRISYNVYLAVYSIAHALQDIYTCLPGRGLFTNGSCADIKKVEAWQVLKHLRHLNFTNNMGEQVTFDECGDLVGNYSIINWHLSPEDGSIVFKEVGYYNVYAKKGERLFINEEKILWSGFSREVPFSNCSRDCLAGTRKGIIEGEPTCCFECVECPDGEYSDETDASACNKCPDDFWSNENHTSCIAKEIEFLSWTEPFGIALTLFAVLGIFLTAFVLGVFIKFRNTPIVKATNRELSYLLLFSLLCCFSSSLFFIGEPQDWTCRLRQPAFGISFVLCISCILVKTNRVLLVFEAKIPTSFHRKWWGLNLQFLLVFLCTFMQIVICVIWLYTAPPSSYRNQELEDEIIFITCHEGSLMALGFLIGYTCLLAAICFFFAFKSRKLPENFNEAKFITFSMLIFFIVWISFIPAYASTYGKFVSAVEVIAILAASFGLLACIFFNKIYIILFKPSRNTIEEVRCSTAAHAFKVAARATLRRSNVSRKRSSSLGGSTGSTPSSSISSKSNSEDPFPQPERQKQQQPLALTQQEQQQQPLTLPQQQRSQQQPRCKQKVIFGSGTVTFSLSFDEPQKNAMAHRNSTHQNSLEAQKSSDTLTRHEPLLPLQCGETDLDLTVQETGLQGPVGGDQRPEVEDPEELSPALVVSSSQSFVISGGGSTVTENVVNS
Procedure: The activities of the compounds of the present invention on calcium receptors were measured. The measurement was performed in accordance with the method described in Example 4 of Nemeth et al., PCT/US95/13704 (International Publication No. WO96/12697). In brief, HEK293 cells were transfected with a plasmid pHuPCaR4.0 containing a human calcium receptor gene and loaded with fluo-3. The loading was carried out by incubating the cells at 37° C. for 1 hour in Dulbecco's modified Eagle's medium which contained about 5 μM of fluo-3/AM and had been buffered with 20 mM HEPES. Next, the cells were rinsed with Hank's balanced salt solution which contained 1 mM CaCl2 and 1 mM MgCl2 and had been buffered with 20 mM HEPES. Then each test compound was added to the cells and the fluorescence was measured with the use of an excitation wavelength of 485 nm and an emission wavelength of 540 nm.

pEC50 | Compound
6.06 | COc1cccc(C(C)NCCSc2cccc(Br)c2)c1 (centres unmarked) [Compound K-2045]
6.89 | COc1cccc(C(C)NCCCCSc2cccc(Br)c2)c1 (centres unmarked) [Compound K-2047]
6.14 | COc1cccc(C(C)NCCCCCSc2cccc(Br)c2)c1 (centres unmarked) [Compound K-2048]
7.10 | COc1cccc(C(C)NCCCCSc2ccc(F)cc2)c1 (centres unmarked) [Compound K-2040]
6.44 | COc1cccc(C(C)NCCCCSc2ccccc2Br)c1 (centres unmarked) [Compound K-2017]
6.07 | COc1cccc(C(C)NCCSc2cccc(C(F)(F)F)c2)c1 (centres unmarked) [Compound K-2008]
6.44 | COc1cccc(C(C)NCCCSc2ccccc2Br)c1 (centres unmarked) [Compound K-2016]
6.11 | COc1cccc(C(C)NCCCCCCOc2ccc(Br)cc2)c1 (centres unmarked) [Compound K-2006]
6.01 | COc1cccc(C(C)NCCCCCSc2nc3ccccc3s2)c1 (centres unmarked) [Compound 38]
6.68 | COc1cccc([C@@H](C)NCCCCCSc2cccc(C(F)(F)F)c2)c1 [Compound K-2011]
6.41 | COc1cccc(C(C)NCCCCCCSc2ccc(C(F)(F)F)cc2)c1 (centres unmarked) [Compound K-2058]
6.57 | COc1cccc(C(C)NCCCCCCCSc2ccc(C(F)(F)F)cc2)c1 (centres unmarked) [Compound K-2059]
6.85 | COc1cccc(C(C)NCCCCSc2cccc(C(F)(F)F)c2)c1 (centres unmarked) [Compound K-2010]
6.66 | COc1cccc(C(C)NCCCCCCSc2ccc([N+](=O)[O-])cc2)c1 (centres unmarked) [Compound K-2035]
6.26 | COc1cccc(C(C)NCCCCCCCSc2cccc(Br)c2)c1 (centres unmarked) [Compound K-2050]
6.33 | COc1cccc([C@@H](C)NCCCCCCCOc2ccc(Br)cc2)c1 [Compound K-2007]
6.31 | COc1cccc(C(C)NCCSc2ccccc2Br)c1 (centres unmarked) [Compound K-2015]
6.48 | COc1cccc(C(C)NCCCCCSc2ccccc2Br)c1 (centres unmarked) [Compound K-2018]
6.00 | COc1cccc(C(C)NCCCSc2ccc3ccccc3c2)c1 (centres unmarked) [Compound 77]
6.38 | COc1cccc(C(C)NCCCCOc2ccc(Br)cc2)c1 (centres unmarked) [Compound K-2004]
7.00 | COc1cccc(C(C)NCCCCCSc2ccc(F)cc2)c1 (centres unmarked) [Compound K-2041]
6.08 | COc1cccc(C(C)NCCCCCCSc2cccc(Br)c2)c1 (centres unmarked) [Compound K-2049]
6.12 | COc1cccc(C(C)NCCCCCCOc2ccc(Cl)cc2)c1 (centres unmarked) [Compound 18]
6.85 | COc1cccc(C(C)NCCCSc2cccc(Br)c2)c1 (centres unmarked) [Compound K-2046]
6.47 | COc1cccc(C(C)NCCCCCCCCSc2cccc(Br)c2)c1 (centres unmarked) [Compound K-2051]
5.74 | COc1cccc(C(C)NCCCCCCSc2ccccc2Cl)c1 (centres unmarked) [Compound 26]
6.39 | COc1cccc([C@@H](C)NCCCCCSc2ccc(C(F)(F)F)cc2)c1 [Compound K-2057]

The remaining lines, values behind:

Compound | pEC50
C[C@@H](NCCCCCSc1ccc(C(F)(F)F)cc1)c1cccc2ccccc12 [Compound K-2076, N-[(1R)-1-(1-naphthyl)ethyl]-N-(5-{[4-(trifluoromethyl)phenyl]thio}pentyl)amine] | 5.21
CC(NCCCOc1ccc2[nH]ccc2c1)c1cccc2ccccc12 (centres unmarked) [Compound 112] | 7.11
CC(NCCCCSc1ccc(Br)cc1)c1cccc2ccccc12 (centres unmarked) [Compound S-80] | 7.00
CC(NCCC(=O)N(Cc1ccc(Cl)cc1)Cc1cccc(Cl)c1)c1cccc2ccccc12 (centres unmarked) [Compound K-2261] | 7.59
CC(NCCC(=O)N(Cc1ccccc1Cl)Cc1ccccc1Cl)c1cccc2ccccc12 (centres unmarked) [Compound K-2254] | 7.06
COc1cccc(C(C)NCCCOc2cccc(Cl)c2)c1 (centres unmarked) [Compound 65] | 6.28
C[C@@H](NCCC(=O)N(Cc1ccccc1)Cc1ccc2ccccc2c1)c1cccc2ccccc12 [Compound K-2248] | 7.11
CC(NCCCOc1ccc2oc(-c3ccccc3)cc(=O)c2c1)c1cccc2ccccc12 (centres unmarked) [Compound 103] | 6.52
CC(NCCC(=O)N(Cc1ccc(F)cc1)Cc1ccc(F)cc1)c1cccc2ccccc12 (centres unmarked) [Compound K-2256] | 6.74
COc1cccc(C(C)NCCCSc2ccccc2Cl)c1 (centres unmarked) [Compound 20] | 5.49
C[C@@H](NCCC(=O)N(Cc1ccc(Cl)cc1)Cc1ccc(Cl)cc1)c1cccc2ccccc12 [Compound K-2243, N1,N1-di(4-chlorobenzyl)-3-{[(1R)-1-(1-naphthyl)ethyl]amino}propanamide] | 7.04
Cc1ccc(COc2cccc(C(C)NCCSc3cc(Cl)ccc3Cl)c2)cc1 (racemic) [Compound K-2268, (±)-N-(1-(3-(4-methylbenzyloxy)phenyl)ethyl)-2-(2′,5′-dichlorophenylthio)ethylamine] | 7.05
COc1cccc(C(C)NCCCSc2ccc(C(F)(F)F)cc2)c1 (centres unmarked) [Compound K-2055] | 7.24
CC(NCCC(=O)N(Cc1ccccc1)Cc1ccccc1)c1cccc2ccccc12 (centres unmarked) [Compound K-2177] | 7.12
Cc1ccc(SCCCCNC(C)c2cccc3ccccc23)cc1C (centres unmarked) [Compound S-52] | 6.80
CC(NCCCCCCCSc1c(Cl)c(Cl)nc(Cl)c1Cl)c1cccc2ccccc12 (centres unmarked) [Compound S-193] | 7.18
CC(NCCSc1cccc(C(F)(F)F)c1)c1cccc2ccccc12 (centres unmarked) [Compound K-2275] | 6.57
COc1cccc(C(C)NCCCOc2ccc(Br)cc2)c1 (centres unmarked) [Compound K-2003] | 6.54

Compound | pEC50
COc1ccc(SCCCCN[C@H](C)c2cccc3ccccc23)cc1 [Compound K-2314] | 6.54
CC(NCCC(=O)N(Cc1ccccc1)Cc1ccccc1Cl)c1cccc2ccccc12 (centres unmarked) [Compound K-2249] | 7.09
COc1cccc([C@@H](C)NCCCCOc2ccc(Cl)cc2)c1 [Compound 14] | 5.54
COc1cccc(C(C)NCCCSc2c(Cl)cccc2Cl)c1 (centres unmarked) [Compound K-2084] | 6.92
CC(NCCC(=O)N(Cc1ccccc1)Cc1ccc(Cl)cc1Cl)c1cccc2ccccc12 (centres unmarked) [Compound K-2251] | 7.29
CC(NCCSc1cc(Cl)ccc1Cl)c1cccc(OCCCCCCCl)c1 (racemic) [Compound K-2260, (±)-N-(1-(3-(6-chlorohexyloxy)phenyl)ethyl)-2-(2′,5′-dichlorophenylthio)ethylamine] | 7.02
CC(NCCCCCSc1ccccc1Br)c1cccc2ccccc12 (centres unmarked) [Compound K-2075] | 6.85
COc1cccc(C(C)NCCCOc2ccc3[nH]ccc3c2)c1 (centres unmarked) [Compound 80] | 6.33
C[C@@H](NCCCCCCCCCCCCSc1c(F)c(F)c(C(F)(F)F)c(F)c1F)c1cccc2ccccc12 [Compound S-201] | 6.74
CC(NCCOc1cccc(Cl)c1)c1cccc2ccccc12 (centres unmarked) [Compound K-2030] | 7.31
CC(NCCC(=O)N(Cc1cccc(Cl)c1)Cc1cccc(Cl)c1)c1cccc2ccccc12 (centres unmarked) [Compound K-2253] | 6.72
COc1cccc(C(C)NCCCOC2c3ccccc3-c3ccccc32)c1 (centres unmarked) [Compound 56] | 6.55
CC(NCCSc1cc(Cl)c(Cl)cc1Cl)c1cccc2ccccc12 (centres unmarked) [Compound K-2295] | 5.87
COc1cccc(C(C)NCCCOc2ccccc2Cl)c1 (centres unmarked) [Compound 62] | 6.29
COc1cccc(C(C)NCCCCCOc2ccc(Cl)cc2)c1 (centres unmarked) [Compound 16] | 6.26
COc1cccc(C(C)NCCCOc2ccc(Cl)cc2)c1 (centres unmarked) [Compound 68] | 6.19
COc1cccc(C(C)NCCCCOc2ccccc2Cl)c1 (centres unmarked) [Compound 2] | 4.89
